25 compounds from publication PMC9024523, “Phenoxyaromatic Acid Analogues as Novel Radiotherapy Sensitizers: Design, Synthesis and Biological Evaluation” (Molecules, 2022) can be followed below.

“And” between values parts separate entries of the source, which are not always exact repeats. Equal values may be shown once.

The subject of the assay is mouse red blood cells. In words: In vitro red blood cell-based assay (oxygen equilibrium curve, Softron analyzer). Particulars: final effector concentration 2 mM, mean ± SD; for P50/P50C: P50C = control with 1% DMSO; for P50: 1% DMSO; for P50 / ∆P50: mouse red blood cells; for ∆P50: ∆P50 = P50 − P50C. The source says:
In the first stage of our research, three series of analogues were designed and synthesized to explore refinement of the hydrophobic parts of 19f, 19m, 24a and 24b; hinge areas of 18g, 19b and 19y; and tail regions of 15c, 15d and 16c, respectively. We used the Softron Analyzer to evaluate the effect of these compounds on the half-blood oxygen saturation(P50) value of red blood cells. The most promising phenoxyaromatic acid compound, efaproxiral, was used as a positive control. […] The results reminded us that the modification of the hydrophobic part or linker extension is beneficial to improve an allosteric effect.
Eight-week-old female C57BL6J mice were purchased from Beijing Vital River Laboratory Animal Technology Co., Ltd. A total of 540 μL mouse blood was added into the 1.5 mL centrifuge tube, followed by adding 60 μL 3.8% sodium citrate. The mixture was then centrifuged at 1500 rpm for 10 min, the supernatant was carefully aspirated, and the cells were washed three times with PBS solution. After mixing packed red blood cells with Alsever’s solution in a ratio of 1:1, a blood gas analyzer (RADIOMETER ABL 90) was used to analyze the red blood cell density and hemoglobin concentration.
All of the compounds were prepared as 200 mM stock solutions in DMSO. Oxygen equilibrium measurements were performed with the Softron analyzer (Softron Medical Products, Beijing, China) using mouse red blood cells. The samples were prepared by adding 3 mg hemoglobin equivalent of red blood cells into 3.92 mL loading buffer (100 mM NaCl, 50 mM bis-Tris at pH 7.2 and 25 °C), followed by 20 μL 10% Dimethicone as a defoamer and 20 μL 20% BSA. Afterwards, 40 μL stock solution was added, and the mixture was loaded to the sample cell and fully deoxygenated by blowing into nitrogen at 37 °C for 15 min. Then, the oxygen equilibrium curve was recorded by blowing into oxygen.

For “2-(4-(1-((3,5-dimethylphenyl)carbamoyl)cyclopropyl)phenoxy)-2-methylpropanoic acid [19e]”, the P50/P50C is 1.10 ± 0.04, the P50 is 46.24 ± 7.09 mmHg, the “K (Hill coefficient of the oxygen dissociation curve at 50% saturation)” value was determined as 2.40 ± 0.12 and the “∆P50” value was 4.41 ± 2.27 mmHg.

On to “2-(4-(2-((3-bromo-5-chlorophenyl)amino)ethyl)phenoxy)-2-methylpropanoic acid [18b]”, for which the P50/P50C worked out at 1.10 ± 0.03, the P50 came out at 42.61 ± 2.15 mmHg, the “K (Hill coefficient of the oxygen dissociation curve at 50% saturation)” value was determined as 2.19 ± 0.01 and the “∆P50” value is given as 3.66 ± 0.88 mmHg.

For the compound “2-(4-(2-([1,1′-biphenyl]-4-ylamino)ethyl)phenoxy)-2-methylpropanoic acid [18e]”, the P50/P50C came out at 1.15 ± 0.37, the P50 was 51.84 ± 16.79 mmHg, the “K (Hill coefficient of the oxygen dissociation curve at 50% saturation)” value is 2.28 ± 0.28 and the “∆P50” value came to 6.60 ± 16.79 mmHg.

As to “2-methyl-2-(4-(2-(naphthalen-2-ylamino)ethyl)phenoxy)propanoic acid [18f]”, the P50/P50C worked out at 1.72 ± 0.03, the P50 is listed as 79.24 ± 1.61 mmHg, the “K (Hill coefficient of the oxygen dissociation curve at 50% saturation)” value stood at 1.89 ± 0.13 and the “∆P50” value was 33.13 ± 1.61 mmHg.

For the compound “2-methyl-2-(4-(2-oxo-2-(o-tolylamino)ethyl)phenoxy)propanoic acid [19f]”, the P50/P50C worked out at 1.17 ± 0.04, the P50 is recorded as 53.78 ± 1.94 mmHg, the “K (Hill coefficient of the oxygen dissociation curve at 50% saturation)” value is 2.26 ± 0.11 and the “∆P50” value was determined as 7.72 ± 1.87 mmHg.

“7-(2-((3,5-dimethylphenyl)amino)-2-oxoethyl)-2,3-dihydrobenzo[b][1,4]dioxine-2-carboxylic acid [compound 20]”: the P50/P50C was found to be 1.12 ± 0.06, the P50 was found to be 47.11 ± 8.08 mmHg, the “K (Hill coefficient of the oxygen dissociation curve at 50% saturation)” value is 2.39 ± 0.16 and the “∆P50” value amounted to 5.27 ± 3.27 mmHg.

In the case of `CCOC(=O)CCCOc1ccc(CC(=O)Nc2cc(C)cc(C)c2)cc1` [15a, Ethyl 4-(4-(2-((3,5-dimethylphenyl)amino)-2-oxoethyl)phenoxy)butanoate], the P50/P50C is listed as 0.96 ± 0.25, the P50 worked out at 43.55 ± 11.21 mmHg and the “∆P50” value is −1.70 ± 11.21 mmHg.

Regarding `COC(=O)C(Oc1ccc(CC(=O)Nc2cc(C)cc(C)c2)cc1)c1ccccc1` (stereo not drawn) [15b, Methyl2-(4-(2-((3,5-dimethylphenyl)amino)-2-oxoethyl)phenoxy)-2-phenylacetate], the P50/P50C was 1.28 ± 0.19, the P50 is recorded as 57.82 ± 8.69 mmHg and the “∆P50” value is 12.58 ± 8.69 mmHg.

In the case of `COC(=O)C(C)(C)Oc1ccc(CC(=O)Nc2cc(C)cc(C)c2)cc1` [15c, Methyl2-(4-(2-((3,5-dimethylphenyl)amino)-2-oxoethyl)phenoxy)-2methylpropanoate], the P50/P50C was 0.96 ± 0.26, the P50 turned out to be 43.28 ± 11.71 mmHg and the “∆P50” value is on record as −1.96 ± 11.71 mmHg.

As for `Cc1cc(C)cc(NC(=O)Cc2ccc(OCCCC(=O)O)cc2)c1` [16a, 4-(4-(2-((3,5-dimethylphenyl)amino)-2-oxoethyl)phenoxy)butanoic acid], the P50/P50C came to 1.18 ± 0.04, the P50 is recorded as 53.49 ± 1.85 mmHg and the “∆P50” value was 8.25 ± 1.85 mmHg.

Take `Cc1cc(C)cc(NCCCc2ccc(OC(C)(C)C(=O)O)cc2)c1` [18a, 2-(4-(3-((3,5-dimethylphenyl)amino)propyl)phenoxy)-2-methylpropanoic acid]: the P50/P50C worked out at 1.41 ± 0.03, the P50 is on record as 77.19 ± 5.93 mmHg and the “∆P50” value came out at 22.54 ± 2.74 mmHg.

Take `CSc1cccc(NCCc2ccc(OC(C)(C)C(=O)O)cc2)c1` [18c, 2-methyl-2-(4-(2-((3-(methylthio)phenyl)amino)ethyl)phenoxy)propanoic acid]: the P50/P50C came out at 1.28 ± 0.07, the P50 was 48.61 ± 4.43 mmHg and the “∆P50” value was 10.7 ± 2.95 mmHg.

In the case of `C#Cc1cccc(NCCc2ccc(OC(C)(C)C(=O)O)cc2)c1` [18d, 2-(4-(2-((3-ethynylphenyl)amino)ethyl)phenoxy)-2-methylpropanoic acid], the P50/P50C turned out to be 1.15 ± 0.05, the P50 is given as 52.25 ± 2.32 mmHg and the “∆P50” value was 7.01 ± 2.32 mmHg.

With `Cc1cc(C)cc(NCCc2ccc(OC(C)(C)C(=O)O)cc2)c1` [18g, 2-(4-(2-((3,5-dimethylphenyl)amino)ethyl)phenoxy)-2-methylpropanoic acid], the P50/P50C worked out at 1.86 ± 0.05; the P50 came to 77.54 ± 6.96 mmHg; the “∆P50” value was 35.71 mmHg and 35.71 ± 2.14 mmHg.

As for `Cc1cc(C)cc(NC(=O)c2ccc(OC(C)(C)C(=O)O)cc2)c1` [19b, 2-(4-((3,5-dimethylphenyl)carbamoyl)phenoxy)-2-methylpropanoic acid], the P50/P50C was 1.04 ± 0.05, the P50 came to 43.01 ± 2.18 mmHg and the “∆P50” value is reported as 1.82 ± 2.18 mmHg.

For `Cc1cc(C)cc(NC(=O)CCCc2ccc(OC(C)(C)C(=O)O)cc2)c1` [19d, 2-(4-(4-((3,5-dimethylphenyl)amino)-4-oxobutyl)phenoxy)-2-methylpropanoic acid], the P50/P50C is listed as 1.60 ± 0.02, the P50 is reported as 67.93 ± 8.80 mmHg and the “∆P50” value was determined as 25.43 ± 3.71 mmHg.

Consider `CC(C)(Oc1ccc(CC(=O)Nc2cc(Br)cc(Br)c2)cc1)C(=O)O` [19h, 2-(4-(2-((3,5-dibromophenyl)amino)-2-oxoethyl)phenoxy)-2-methylpropanoic acid], for which the P50/P50C came out at 1.87 ± 0.03, the P50 worked out at 68.71 ± 1.18 mmHg and the “∆P50” value is 31.90 ± 1.18 mmHg.

For the compound `CC(C)(Oc1ccc(CC(=O)Nc2cccc(I)c2)cc1)C(=O)O` [19i, 2-(4-(2-((3-iodophenyl)amino)-2-oxoethyl)phenoxy)-2-methylpropanoic acid], the P50/P50C was 1.91 ± 0.13; the P50 was determined as 86.61 ± 6.04 mmHg; the “∆P50” value was 41.37 mmHg and 41.37 ± 6.04 mmHg.

As for `CC(C)(Oc1ccc(CC(=O)Nc2cc(Cl)cc(Br)c2)cc1)C(=O)O` [19j, 2-(4-(2-((3-. bromo-5-chlorophenyl)amino)-2-oxoethyl)phenoxy)-2-methylpropanoic acid], the P50/P50C was 1.82 ± 0.02, the P50 was determined as 82.35 ± 0.80 mmHg and the “∆P50” value was determined as 37.11 ± 0.80 mmHg.

As for `CC(C)(Oc1ccc(CC(=O)Nc2ccccc2Br)cc1)C(=O)O` [19k, 2-(4-(2-((2-bromophenyl)amino)-2-oxoethyl)phenoxy)-2-methylpropanoic acid], the P50/P50C is recorded as 1.34 ± 0.29, the P50 amounted to 49.17 ± 10.7 mmHg and the “∆P50” value came to 12.36 ± 10.79 mmHg.

With `Cc1cccc(NC(=O)Cc2ccc(OC(C)(C)C(=O)O)cc2)c1Br` [19l, 2-(4-(2-((2-bromo-3-methylphenyl)amino)-2-oxoethyl)phenoxy)-2-methylpropanoic acid], the P50/P50C stood at 1.56 ± 0.04, the P50 came to 70.41 ± 1.68 mmHg and the “∆P50” value is on record as 25.17 ± 1.68 mmHg.

On to `CSc1ccc(NC(=O)Cc2ccc(OC(C)(C)C(=O)O)cc2)cc1` [19m, 2-methyl-2-(4-(2-((4-(methylthio)phenyl)amino)-2-oxoethyl)phenoxy)propanoic acid], for which the P50/P50C came out at 1.80 ± 0.02; the P50 amounted to 74.24 ± 0.69 mmHg; the “∆P50” value is 33.05 mmHg and 33.05 ± 0.69 mmHg.

For the compound `CSc1cccc(NC(=O)Cc2ccc(OC(C)(C)C(=O)O)cc2)c1` [19m-1, 2-methyl-2-(4-(2-((3-(methylthio)phenyl)amino)-2-oxoethyl)phenoxy)propanoic acid], the P50/P50C is reported as 1.81 ± 0.02; the P50 was determined as 81.67 ± 0.95 mmHg; the “∆P50” value is 36.43 mmHg and 36.43 ± 0.95 mmHg.

As to `C#Cc1ccc(NC(=O)Cc2ccc(OC(C)(C)C(=O)O)cc2)cc1` [19n, 2-(4-(2-((4-ethynylphenyl)amino)-2-oxoethyl)phenoxy)-2-methylpropanoic acid], the P50/P50C came to 1.46 ± 0.02; the P50 is reported as 60.34 ± 0.70 mmHg; the “∆P50” value was 19.15 mmHg and 19.15 ± 0.70 mmHg.

Turning to `C#Cc1cccc(NC(=O)Cc2ccc(OC(C)(C)C(=O)O)cc2)c1` [19n-1, 2-(4-(2-((3-ethynylphenyl)amino)-2-oxoethyl)phenoxy)-2-methylpropanoic acid], the P50/P50C was found to be 1.79 ± 0.04; the P50 stood at 80.97 ± 1.77 mmHg; the “∆P50” value was 38.73 mmHg and 38.73 ± 2.47 mmHg.
